Laboratory results taken from patent US20260241012A1, “1,8-NAPHTHYRIDIN-2-ONE HETEROBIFUNCTIONAL BCL6 DEGRADERS” (Treeline Biosciences, Inc., priority 2022, published 2026).

Molecular target: T1, N-terminal HiBiT tagged BCL6 (Homo sapiens, UniProt P41182)
T1 construct: expressed in transfected cells; host or cells: HT1080 (ATCC CCL-121), stably transduced with lentivirus pLV-UBC-N-HiBiT-BCL6-PGK-puro
Experiment: HiBiT based degradation assay
Type: cell-based
Details: HT1080 cells expressing N-terminal HiBiT tagged BCL6, 5 hours of incubation; for Ymin (5 hr): BCL6 degradation normalized with DMSO control; for DC50: four-parameter logistic model, read-out: EC50 (5 hr)
In short: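 Degradation measured by luminescence from the Nano-Glo HiBiT lytic reagent (15 min, room temperature), normalized to DMSO controls and fitted to a four-parameter curve.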

Ymin (5 hr) | DC50 [nM] | Compound
+++ (30% ≤ Ymin < 50%) | 10 to 100 | CNC(=O)COc1cc2cc(Nc3nc(N4CCN(CC5CCN(c6cccc7c(C8CCC(=O)NC8=O)nn(C)c67)CC5)[C@H](C(C)(C)O)C4)ncc3Cl)cnc2n(C(C)C)c1=O (stereo partly drawn) [Compound 208a, 2-[[6-[[5-chloro-2-[(3S)-4-[[1-[3-(2,6-dioxo-3-piperidyl)-1-methyl-indazol-7-yl]-4-piperidyl]methyl]-3-(1-hydroxy-1-methyl-ethyl)piperazin-1-yl]pyrimidin-4-yl]amino]-1-isopropyl-2-oxo-1,8-naphthyridin-3-yl]oxy]-N-methyl-acetamide]
++++ (Ymin < 30%) | 10 to 100 | CNC(=O)COc1cc2cc(Nc3nc(N4CCN(CC5CCN(c6cccc7c(C8CCC(=O)NC8=O)nn(C)c67)CC5)[C@@H](C(C)(C)O)C4)ncc3Cl)cnc2n(C(C)C)c1=O (some centres unmarked) [Compound 208b]
++++ (Ymin < 30%) | 10 to 100 | CNC(=O)COc1cc2cc(Nc3nc(N4CCC(CN5CCN(c6cccc7c(C8CCC(=O)NC8=O)nn(C)c67)[C@@H](C)C5)CC4)ncc3F)cnc2n(C(C)C)c1=O (stereo partly drawn) [Compound 210a, 2-[[6-[[2-[4-[[(3S)-4-[3-(2,6-dioxo-3-piperidyl)-1-methyl-indazol-7-yl]-3-methyl-piperazin-1-yl]methyl]-1-piperidyl]-5-fluoro-pyrimidin-4-yl]amino]-1-isopropyl-2-oxo-1,8-naphthyridin-3-yl]oxy]-N-methyl-acetamide]
++++ (Ymin < 30%) | 10 to 100 | CNC(=O)COc1cc2cc(Nc3nc(N4CCC(CN5CCN(c6cccc7c(C8CCC(=O)NC8=O)nn(C)c67)[C@H](C)C5)CC4)ncc3F)cnc2n(C(C)C)c1=O (stereo partly drawn) [Compound 210b, 2-[[6-[[2-[4-[[(3R)-4-[3-(2,6-dioxo-3-piperidyl)-1-methyl-indazol-7-yl]-3-methyl-piperazin-1-yl]methyl]-1-piperidyl]-5-fluoro-pyrimidin-4-yl]amino]-1-isopropyl-2-oxo-1,8-naphthyridin-3-yl]oxy]-N-methyl-acetamide]

Continued, compound first:

Compound | Ymin (5 hr) | DC50 [nM]
CNC(=O)COc1cc2cc(Nc3nc(N4CC5(CC(Nc6ccc7c(C8CCC(=O)NC8=O)nn(C)c7c6)C5)C4)ncc3Cl)cnc2n(C(C)C)c1=O (centres unmarked) [Compound 202, 2-[[6-[[5-chloro-2-[6-[[3-(2,6-dioxo-3-piperidyl)-1-methyl-indazol-6-yl]amino]-2-azaspiro[3.3]heptan-2-yl]pyrimidin-4-yl]amino]-1-isopropyl-2-oxo-1,8-naphthyridin-3-yl]oxy]-N-methyl-acetamide] | ++++ (Ymin < 30%) | < 10
CNC(=O)COc1cc2cc(Nc3nc(N4CCC(O)(CN5CCC(c6cccc7c(C8CCC(=O)NC8=O)nn(C)c67)CC5)CC4)ncc3Cl)cnc2n(C(C)C)c1=O (centres unmarked) [Compound 203, 2-[[6-[[5-chloro-2-[4-[[4-[3-(2,6-dioxo-3-piperidyl)-1-methyl-indazol-7-yl]-1-piperidyl]methyl]-4-hydroxy-1-piperidyl]pyrimidin-4-yl]amino]-1-isopropyl-2-oxo-1,8-naphthyridin-3-yl]oxy]-N-methyl-acetamide] | ++++ (Ymin < 30%) | < 10
CNC(=O)COc1cc2cc(Nc3nc(N4CCC5(CCC(CN6CCN(c7ccc8c(C9CCC(=O)NC9=O)nn(C)c8c7)CC6)CC5)CC4)ncc3Cl)cnc2n(C(C)C)c1=O (centres unmarked) [Compound 204, 2-((6-((5-chloro-2-(9-((4-(3-(2,6-dioxopiperidin-3-yl)-1-methyl-1H-indazol-6-yl)piperazin-1-yl)methyl)-3-azaspiro[5.5]undecan-3-yl)pyrimidin-4-yl)amino)-1-isopropyl-2-oxo-1,2-dihydro-1,8-naphthyridin-3-yl)oxy)-N-methylacetamide] | ++++ (Ymin < 30%) | 10 to 100
CNC(=O)COc1cc2cc(Nc3nc(N4CC5(CCC(CN6CCN(c7ccc8c(C9CCC(=O)NC9=O)nn(C)c8c7)CC6)CC5)C4)ncc3Cl)cnc2n(C(C)C)c1=O (centres unmarked) [Compound 205, 2-((6-((5-chloro-2-(7-((4-(3-(2,6-dioxopiperidin-3-yl)-1-methyl-1H-indazol-6-yl)piperazin-1-yl)methyl)-2-azaspiro[3.5]nonan-2-yl)pyrimidin-4-yl)amino)-1-isopropyl-2-oxo-1,2-dihydro-1,8-naphthyridin-3-yl)oxy)-N-methylacetamide] | ++++ (Ymin < 30%) | < 10
CNC(=O)COc1cc2cc(Nc3nc(NC4CCC5(CC4)CN(c4ccc6c(C7CCC(=O)NC7=O)nn(C)c6c4)C5)ncc3Cl)cnc2n(C(C)C)c1=O (centres unmarked) [Compound 206, 2-[[6-[[5-chloro-2-[[2-[3-(2,6-dioxo-3-piperidyl)-1-methyl-indazol-6-yl]-2-azaspiro[3.5]nonan-7-yl]amino]pyrimidin-4-yl]amino]-1-isopropyl-2-oxo-1,8-naphthyridin-3-yl]oxy]-N-methyl-acetamide] | ++++ (Ymin < 30%) | < 10
CNC(=O)COc1cc2cc(Nc3nc(N4CC5(CC(N(C)c6ccc7c(C8CCC(=O)NC8=O)nn(C)c7c6)C5)C4)ncc3Cl)cnc2n(C(C)C)c1=O (centres unmarked) [Compound 207, 2-[[6-[[5-chloro-2-[6-[[3-(2,6-dioxo-3-piperidyl)-1-methyl-indazol-6-yl]-methyl-amino]-2-azaspiro[3.3]heptan-2-yl]pyrimidin-4-yl]amino]-1-isopropyl-2-oxo-1,8-naphthyridin-3-yl]oxy]-N-methyl-acetamide] | +++ (30% ≤ Ymin < 50%) | < 10
CNC(=O)COc1cc2cc(Nc3nc(N4CCC(CN5C6CC5CN(c5cccc7c(C8CCC(=O)NC8=O)nn(C)c57)C6)CC4)ncc3Cl)cnc2n(C(C)C)c1=O (centres unmarked) [Compound 209, 2-[[6-[[5-chloro-2-[4-[[3-[3-(2,6-dioxo-3-piperidyl)-1-methyl-indazol-7-yl]-3,6-diazabicyclo[3.1.1]heptan-6-yl]methyl]-1-piperidyl]pyrimidin-4-yl]amino]-1-isopropyl-2-oxo-1,8-naphthyridin-3-yl]oxy]-N-methyl-acetamide] | +++ (30% ≤ Ymin < 50%) | < 10
CNC(=O)COc1cc2cc(Nc3nc(N4CCC(C(=O)N5CCN(c6ccc7c(C8CCC(=O)NC8=O)nn(C)c7c6)CC5)CC4)ncc3Cl)cnc2n(C(C)C)c1=O (centres unmarked) [Compound 211, 2-[[6-[[5-chloro-2-[4-[4-[3-(2,6-dioxo-3-piperidyl)-1-methyl-indazol-6-yl]piperazine-1-carbonyl]-1-piperidyl]pyrimidin-4-yl]amino]-1-isopropyl-2-oxo-1,8-naphthyridin-3-yl]oxy]-N-methyl-acetamide] | +++ (30% ≤ Ymin < 50%) | < 10
CNC(=O)COc1cc2cc(Nc3nc(N4CCC(CN5CCC(c6ccc7c(C8CCC(=O)NC8=O)nn(C)c7c6)CC5)CC4)ncc3Cl)cnc2n(C(C)C)c1=O (centres unmarked) [Compound 212, 2-((6-((5-chloro-2-(4-((4-(3-(2,6-dioxopiperidin-3-yl)-1-methyl-1H-indazol-6-yl)piperidin-1-yl)methyl)piperidin-1-yl)pyrimidin-4-yl)amino)-1-isopropyl-2-oxo-1,2-dihydro-1,8-naphthyridin-3-yl)oxy)-N-methylacetamide] | ++++ (Ymin < 30%) | < 10
